Key:
[1] = Dissolution rate of SR48692 capsules in deionized water pH 5.5 (USP Apparatus 2); assay type: physicochemical; conditions: at the end of the experiment of 60 minutes, water pH 5.5 (unbuffered), 37°C
Protocol: The dissolution rate of 25 mg SR48692 solid dispersion in hard gelatin capsules were measured in deionized water (900 ml, pH=5.5, unbuffered) at 37°C. A USP dissolution system (Apparatus 2) with a paddle speed of 100 RPM was used. Dissolution rate was monitored by UV (Hewlett Packard 8452A) at 234 nm.
A screening dissolution test was run in USP Apparatus 2 with water at pH 5.5 (unbuffered) at 37°C comparing the solid dispersion of this invention (Example 2) with unformulated (jet-milled) SR48692. The solid dispersions provide enormous dissolution enhancement with respect to pure drug and low impurity levels (0.4%).

[2] = Solubility of SR48692 in polyethylene glycol/NaOH/water; assay type: physicochemical; conditions: PEG/NaOH/H2O; mole equivalents of NaOH per mole of drug 1.0 and less

SR48692
dissolved [1]: < 10% | solubility [2]: Inadequate
